# Calls of active or inactive are those of the source. The rule behind the calls is not given here.
# Tests used:
# Ascobolus = test: Antifungal activity against Ascobolus furfuraceus NRRL 6460 at 100 ug/disk by standard disk assay; assay type: functional
# Candida albicans = test: Antifungal activity against Candida albicans ATCC 14053 at 80 ug /disk by standard disk assay; assay type: functional; details: read-out: IZ
Structure (SMILES),inhibition at 100 µg/disc (Ascobolus),Activity (Ascobolus),zone of inhibition at 80 µg/disc (Candida albicans)
CC(=O)CC1(O)C(=O)c2cc3c(c4c(C)cc(O)c(c24)C1=O)OC(C)C3(C)C (centres undefined),47%,–,–
Cc1cc(O)c2c3c(cc4c(c13)OC(C)C4(C)C)C(=O)/C(=N\C1C(=O)c3cc4c(c5c(C)cc(O)c(c35)C1=O)OC(C)C4(C)C)C2=O (centres undefined),–,inactive,–
CC(C)[C@H]1CC[C@@H]2[C@]1(C)CC[C@]1(C)C3=CC[C@H]4[C@](C)(C(=O)O)[C@@H](O)[C@H](O)[C@@H](O)[C@]4(C(=O)O)[C@H]3CC[C@@]21C [POLYTOLYPIN],47%,–,11 mm
